Earlier results as cited in publication PMC7468908 (Nutrients, 2020).

Conditions: some human subjects, 500 mg single dose of Q in certain oral carrier systems; cited from earlier work

O=c1c(O)c(-c2ccc(O)c(O)c2)oc2cc(O)cc(O)c12 [Q, quercetin]
peak plasma concentrations of total Q: 5 to 10 µM
